# Measurements: patent publication US20230190718A1, “METHODS FOR THE TREATMENT OF PANCREATITIS AND PREVENTION OF PANCREATIC CANCER” (BOARD OF REGENTS, THE UNIVERSITY OF TEXAS SYSTEM, priority 2020, published 2023)
# Entries after “also recorded” stand apart in the source; their conditions may differ.
# Tested on: Caerulein-induced pancreatitis
# Experiment: Pretreatment with ADM inducers in caerulein-induced pancreatitis: histology (ADM) and CD45 infiltration
# Format: in vivo, mice
# Conditions: 40 mg/kg b.i.d oral gavage before and during Caerulein; 24 hours after end of Caerulein injections
# Excerpt: Epigenetic modifiers: Recently, the emerging role of epigenetic regulation has led to the development of a wide spectrum of small molecules targeting selectively bromodomain and extra-terminal (BET) protein family which are currently under evaluation in preclinical model of hematological malignancies and solid tumors (Asangani et al., 2014; Delmore et al., 2011; Filippakopoulos et al., 2010). Leveraging the persistent chromatin modifications induced by an acute inflammatory event, the possibility of limiting the detrimental effects of repeated pancreatitis was tested through the administration of INCB054329, a BRD4 inhibitor currently in phase I-II clinical studies in patients with advanced malignancies (Falchook et al., 2019).
# Induction of acute pancreatitis. […] Control mice received injections of pyrogen-free PBS. Mice were examined daily for health conditions and sacrificed at the indicated time points by CO2 asphyxiation and cervical dislocation.
# DAPI nuclear counterstaining was also performed.
smiles,measurement,value
Cc1noc(C)c1-c1ccc2[nH]c(=O)n3c2c1OC[C@@H]3c1ccccn1 [INCB054329],ADM induction (histological evaluation),massive induction of ADM; also recorded: significant ADM induction
same,inflammatory infiltration (CD45 immunostaining),dramatic reduction of inflammatory infiltration; also recorded: strong suppression of inflammation
